Experimental data reported in patent US9695219B2, “Polypeptide having antibacterial activity and angiogenesis-inducing activity and wound-healing drug containing said polypeptide” (priority 2009, dated 2017).
In brackets after ≈: the same amount, converted by molar mass.

Columns and labels:
Format in all cases: cell-based
[1] = system: Alternaria alternata; details: 37° C. for 20 hours; tested twice, first/second value where not matched
Description: (§1) Further, with respect to not only the above-described strains but also various other strains, the “minimum inhibitory concentration (MIC)” was measured as follows. MIC is the lowest concentration of an agent that may inhibit the growth of a bacterium. MIC is used as a parameter for the efficacy of an antibacterial agent, for the strength of bacterial sensitivity, or the like. The bacteria can grow (proliferate) when the concentration is not higher than MIC, and cannot grow when the concentration is higher than MIC. Its measurement is carried out according to a method defined as a standard method by Japanese Society of Chemotherapy or CLINICAL AND LABORATORY […] (CLSI), but, in this Example, its measurement was carried out by a broth microdilution method in accordance with “M100-S17/M7-A7” (Performance Standards for Antimicrobial Susceptibility Testing; Seventeenth Informational Supplement, Vol. 27 No. 1) published by CLSI on January, 2007. That is, sensitivity test of agents was carried out using a microtiter plate or test tubes.
(§2) The bacteria were cultured in liquid media for 4 to 6 hours, and thereafter absorbances at A600 were measured. Bacterial suspensions were diluted with Mueller-Hinton broth (MHB) according to McFarland #0.5. Each strain was added so as to attain about 10^5 CFU/ml (final concentration). Each peptide was prepared to an optional concentration, and the solutions were serially diluted from the concentration. The polypeptide at each concentration stage was added to a microplate or test tubes, and the bacterial suspension was added thereto. Chloramphenicol, amphotericin B, ciprofloxacin, meropenem (MEPM), ciprofloxacin (CPFX), tobramycin (TOB) and oxacillin (OX) were used as positive controls. The plate was incubated at 37° C. for 20 hours, and the lowest concentration where bacterial growth was inhibited was regarded as the minimum inhibitory concentration.

[2] = system: Fusarium solani; details: 37° C. for 20 hours; tested twice, first/second value where not matched
Description: as §1, §2

[3] = system: Candida krusei; details: 37° C. for 20 hours; tested twice, first/second value where not matched
Description: as §1, §2

[4] = system: Trichophyton rubrum; details: 37° C. for 20 hours; tested twice, first/second value where not matched
Description: as §1, §2

[5] = system: Penicillium glabrum (Penicillium frequentans); details: 37° C. for 20 hours; tested twice, first/second value where not matched
Description: as §1, §2

[6] = system: Trichophyton mentagrophytes; details: 37° C. for 20 hours; tested twice, first/second value where not matched
Description: as §1, §2

[7] = system: Acinetobacter baumanni; details: 37° C. for 20 hours; tested twice, first/second value where not matched
Description: as §1, §2

[8] = system: Clostridium ramosum; test: microbe, parasite or virus in culture; details: Thomasclavelia ramosa; 37° C. for 20 hours; tested twice, first/second value where not matched
Description: as §1, §2

[9] = system: Enterococcus faecalis; test: microbe, parasite or virus in culture; details: 37° C. for 20 hours, tested twice, first/second value where not matched
Description: as §1, §2

[10] = system: Bacteroides fragilis; test: microbe, parasite or virus in culture; details: Bacteroides fragilis; 37° C. for 20 hours; tested twice, first/second value where not matched
Description: as §1, §2

[11] = system: Salmonella typhimurium; test: microbe, parasite or virus in culture; details: Salmonella enterica, TYPHIMURIUM; 37° C. for 20 hours; tested twice, first/second value where not matched
Description: as §1, §2

[12] = system: Bacillus subtilis; test: microbe, parasite or virus in culture; details: 37° C. for 20 hours, tested twice, first/second value where not matched
Description: as §1, §2

[13] = system: Streptococcus pyogenes; test: microbe, parasite or virus in culture; details: 37° C. for 20 hours, tested twice, first/second value where not matched
Description: as §1, §2

[14] = system: Micrococcus luteus; test: microbe, parasite or virus in culture; details: 37° C. for 20 hours, tested twice, first/second value where not matched
Description: as §1, §2

[15] = system: Fusobacterium nucleatum; test: microbe, parasite or virus in culture; details: Fusobacterium nucleatum; 37° C. for 20 hours; tested twice, first/second value where not matched
Description: as §1, §2

[16] = system: Salmonella enteritidis; test: microbe, parasite or virus in culture; details: Salmonella enterica, 37° C. for 20 hours, tested twice, first/second value where not matched
Description: as §1, §2

MIC, Alternaria alternata [1] | MIC, Fusarium solani [2] | MIC, Candida krusei [3] | MIC, Trichophyton rubrum [4] | MIC, Penicillium glabrum (Penicillium frequentans) [5] | MIC, Trichophyton mentagrophytes [6] | MIC, Acinetobacter baumanni [7] | MIC [8] | MIC [9] | MIC [10] | MIC [11] | MIC [12] | MIC [13] | MIC [14] | MIC [15] | MIC [16] | SMILES
1 µg/mL (≈ 1.08 µM) | 1 µg/mL (≈ 1.08 µM) | 2 µg/mL (≈ 2.16 µM) | 0.25 µg/mL (≈ 0.271 µM) | 0.125 µg/mL (≈ 0.135 µM) | 0.125 µg/mL (≈ 0.135 µM) |  |  |  |  |  |  |  |  |  |  | C[C@@H]1[C@H](O)[C@@H](C)/C=C/C=C/C=C/C=C/C=C/C=C/C=C/[C@H](O[C@@H]2O[C@H](C)[C@@H](O)[C@H](N)[C@@H]2O)C[C@@H]2O[C@](O)(C[C@@H](O)C[C@@H](O)[C@H](O)CC[C@@H](O)C[C@@H](O)CC(=O)O[C@H]1C)C[C@H](O)[C@H]2C(=O)O [Amphotericin B, amphotericin B]
 |  |  |  |  |  | 16/32 | 4 µg/mL (≈ 12.4 µM) | 4 µg/mL (≈ 12.4 µM) | 1 µg/mL (≈ 3.09 µM) | 4 µg/mL (≈ 12.4 µM) | 4 µg/mL (≈ 12.4 µM) | 2 µg/mL (≈ 6.19 µM) | 1 µg/mL (≈ 3.09 µM) | 0.25 µg/mL (≈ 0.774 µM) | 4 µg/mL (≈ 12.4 µM) | O=C(N[C@H](CO)[C@H](O)c1ccc([N+](=O)[O-])cc1)C(Cl)Cl [Chloramphenicol]
